# Source: US9067937B2 (priority 2012, dated 2015)
# Counter-ions that a name gives are not always drawn. Like-named read-outs stand apart in the source and are kept apart here.
# Experiments:
# MELK = MELK (Homo sapiens, UniProt Q14680); assay: Kinase assay (IMAP fluorescence polarization, FITC-labeled histone H3 peptide); format: biochemical; details: 50 micro-M ATP
# Procedure: MELK activity was determined in the presence or absence of compounds using fluorescein isothiocyanate-labeled (FITC-labeled) histone H3 peptide as a substrate. […] The serially diluted compounds, 0.8 ng/micro-L […] (Carna Biosciences) and 100 nM FITC-labeled histone H3 peptide were reacted in a reaction buffer (20 mM HEPES, 0.01% Tween-20, 0.3 mM MgCl2, 2 mM dithiothreitol, 50 micro-M ATP, pH 7.4) at room temperature for 1 hour. The reaction was stopped by the addition of three fold assay volume of progressive binding solution. […] IC50 values were calculated by nonlinear four parameter fit using SigmaPlot, version 10.0 (Systat Software, Inc.).
# 22Rv1 cells = assay: Cell-based assay, anti-proliferative activity (Cell Counting Kit-8, 72 hours); set-up: species or system human; details: read-out: IC50 (μM) (22Rvl)
# Procedure: (§1) Active candidate inhibitors against MELK were evaluated for their target-specific cytotoxicity using 22Rv1, T47D, A549, DU4475 and HT-1197 cells was used for negative control. 100 micro-L of cell suspension was seeded onto 96-well microtiter plate (ViewPlate-96FTC, PerkinElmer). The initial cell concentration of 22Rv1, T47D, A549, DU4475, and HT1197 were 3,000 cells/well, 2,000 cells/well and 2,500 cells/well, respectively. Cellular growth was determined using Cell Counting Kit-8 (DOJINDO) at 72 hours after the exposure of the candidate inhibitors. […] Accurate IC50 values were calculated as described previously.
# A549 cells = assay: as above; set-up: species or system human; details: read-out: IC50 (μM) (A549)
# Procedure: as §1
# DU4475 cells = assay: as above; set-up: species or system human; details: read-out: IC50 (μM) (DU4475)
# Procedure: as §1
# T47D cells = assay: as above; set-up: species or system human; details: read-out: IC50 (μM) (T47D)
# Procedure: as §1
# HT1197 cells = assay: Cell-based assay, anti-proliferative activity, MELK-negative control (Cell Counting Kit-8, 72 hours); set-up: species or system human; details: read-out: IC50 (μM) (HTll97)
# Procedure: as §1, with “100” for “Active candidate inhibitors against MELK were evaluated for their target-specific cytotoxicity using 22Rv1, T47D, A549, DU4475 and HT-1197 cells was used for negative control. 100”
# Sequence of MELK (Q14680 whole entry, looked up): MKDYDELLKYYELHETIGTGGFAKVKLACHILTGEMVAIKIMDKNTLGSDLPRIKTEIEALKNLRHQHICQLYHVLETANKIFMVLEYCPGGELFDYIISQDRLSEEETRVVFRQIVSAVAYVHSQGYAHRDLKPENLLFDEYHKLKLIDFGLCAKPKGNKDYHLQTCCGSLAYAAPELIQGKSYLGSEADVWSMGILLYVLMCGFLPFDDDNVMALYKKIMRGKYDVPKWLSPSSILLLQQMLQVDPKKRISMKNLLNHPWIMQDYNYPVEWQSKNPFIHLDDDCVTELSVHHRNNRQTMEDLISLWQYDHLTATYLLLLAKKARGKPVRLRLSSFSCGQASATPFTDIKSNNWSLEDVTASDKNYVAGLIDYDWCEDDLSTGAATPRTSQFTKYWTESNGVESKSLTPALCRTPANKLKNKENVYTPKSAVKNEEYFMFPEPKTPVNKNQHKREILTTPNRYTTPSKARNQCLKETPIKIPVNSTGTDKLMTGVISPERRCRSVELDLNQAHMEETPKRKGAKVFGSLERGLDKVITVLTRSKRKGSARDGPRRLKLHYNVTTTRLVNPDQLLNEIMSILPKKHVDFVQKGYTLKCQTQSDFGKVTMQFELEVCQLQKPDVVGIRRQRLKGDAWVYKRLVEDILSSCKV
Compound,IC50 (MELK) [µM],"IC50 (22Rv1 cells; Homo sapiens, 22Rv1, 72 h) [µM]","IC50 (A549 cells; Homo sapiens, A549, 72 h) [µM]","IC50 (DU4475 cells; Homo sapiens, DU-4475, 72 h) [µM]","IC50 (T47D cells; Homo sapiens, T47D, 72 h) [µM]","IC50 (HT1197 cells; Homo sapiens, HT1197, 72 h) [µM]","IC50 (22Rv1 cells; 22Rv1 cells, 72 hours) [µM]","IC50 (A549 cells; A549 cells, 72 hours) [µM]","IC50 (DU4475 cells; DU4475 cells, 72 hours) [µM]","IC50 (T47D cells; T47D cells, 72 hours) [µM]","IC50 (HT1197 cells; HT1197 cells (MELK-negative control), 72 hours) [µM]"
"CC(=O)c1cnc2ccc(-c3cc(Cl)c(O)c(Cl)c3)nc2c1Nc1ccc(N2CCC[C@H](N)C2)nc1 [Example 71, (S)-1-(4-{[6-(3-Aminopiperidin-1-yl)pyridin-3-yl]amino}-6-(3,5-dichloro-4-hydroxyphenyl)-1,5-naphthyridin-3-yl)ethanone trihydrochloride]",0.0005,0.014,0.09,0.008,0.0074,3.4,,,,,
"1-[6-(3,5-Dichloro-4-hydroxyphenyl)-4-(trans-4-hydroxycyclohexylamino)-1,5-naphthyridin-3-yl]-ethanone hydrochloride [Example 91]",0.015,,,,,,0.072,0.048,0.016,0.038,0.33
"CCC(=O)c1cnc2ccc(-c3cc(Cl)c(O)c(Cl)c3)nc2c1Nc1ccc(N2CCC[C@@H](N)C2)nc1 [Example 214, (R)-1-(4-((6-(3-aminopiperidin-1-yl)pyridin-3-yl)amino)-6-(3,5-dichloro-4-hydroxyphenyl)-1,5-naphthyridin-3-yl)propan-1-one trihydrochloride]",0.0013,0.0059,0.013,0.004,0.0028,0.34,,,,,
"CC(=O)c1cnc2ccc(-c3cc(Cl)c(O)c(Cl)c3)nc2c1N[C@H]1CC[C@@H](CN(C)C)CC1 [Example 94, 1-{6-(3,5-Dichloro-4-hydroxyphenyl)-4-({cis-4-[(dimethylamino)methyl]-cyclohexyl}amino)-1,5-naphthyridin-3-yl}ethanone dihydrochloride]",,0.028,0.039,0.0073,0.02,0.25,,,,,
"CC(=O)c1cnc2ccc(-c3cc(Cl)c(O)c(Cl)c3)nc2c1NC[C@H]1CC[C@H](N(C)C)CC1 [Example 89, dihydrochloride]",,0.028,0.041,0.0063,0.023,0.9,,,,,
"CC(C)C(=O)c1cnc2ccc(-c3cc(Cl)c(O)c(Cl)c3)nc2c1N[C@H]1CC[C@H](CN(C)C)CC1 [Example 216, 1-[6-(3,5-dichloro-5-4-hydroxyphenyl)-4-({trans-4-[(dimethylamino)methyl]cyclohexyl}amino)-1,5-naphthyridin-3-yl]-2-methylpropan-1-one dihydrochloride]",0.0019,,0.012,,,0.025,,,,,
"[2H]C([2H])([2H])N(C[C@H]1CC[C@H](Nc2c(C(C)=O)cnc3ccc(-c4cc(Cl)c(O)c(Cl)c4)nc23)CC1)C([2H])([2H])[2H] [Example 28, 1-(6-(3,5-Dichloro-4-hydroxyphenyl)-4-(trans-4-((dimethylamino-d6)methyl)-cyclohexylamino)-1,5-naphthyridin-3-yl)ethanone dihydrochloride]",,0.0052,0.006,0.0022,0.004,0.14,,,,,
"CC(=O)c1cnc2ccc(-c3cc(F)c(O)c(Cl)c3)nc2c1N[C@H]1CC[C@H](NC(=O)[C@@H]2CCCN2)CC1 [Example 76, (S)—N-{4-[3-Acetyl-6-(3-chloro-5-fluoro-4-hydroxyphenyl)-1,5-naphthyridin-trans-4-ylamino]-cyclohexyl}pyrrolidine-2-carboxamide dihydrochloride]",,0.073,0.32,0.019,0.03,8.7,,,,,
"CC(C)C(=O)c1cnc2ccc(-c3cc(F)c(O)c(Cl)c3)nc2c1N[C@H]1CC[C@H](CN(C)C)CC1 [Example 217, dihydrochloride]",0.0018,,0.021,,,0.055,,,,,
